# Positions of bridges follow the written chain, without caps; N, C: chain ends. Residues, ends and D or L forms follow the SMILES beside them.
# Columns and labels:
# [1] = target: T1, MMP2 (Homo sapiens, UniProt P08253); assay: MMPs inhibition assay (FRET substrate), MMP2; format: biochemical
# T1 construct: purchased Sigma-Aldrich
# T1 sequence (P08253 110-660): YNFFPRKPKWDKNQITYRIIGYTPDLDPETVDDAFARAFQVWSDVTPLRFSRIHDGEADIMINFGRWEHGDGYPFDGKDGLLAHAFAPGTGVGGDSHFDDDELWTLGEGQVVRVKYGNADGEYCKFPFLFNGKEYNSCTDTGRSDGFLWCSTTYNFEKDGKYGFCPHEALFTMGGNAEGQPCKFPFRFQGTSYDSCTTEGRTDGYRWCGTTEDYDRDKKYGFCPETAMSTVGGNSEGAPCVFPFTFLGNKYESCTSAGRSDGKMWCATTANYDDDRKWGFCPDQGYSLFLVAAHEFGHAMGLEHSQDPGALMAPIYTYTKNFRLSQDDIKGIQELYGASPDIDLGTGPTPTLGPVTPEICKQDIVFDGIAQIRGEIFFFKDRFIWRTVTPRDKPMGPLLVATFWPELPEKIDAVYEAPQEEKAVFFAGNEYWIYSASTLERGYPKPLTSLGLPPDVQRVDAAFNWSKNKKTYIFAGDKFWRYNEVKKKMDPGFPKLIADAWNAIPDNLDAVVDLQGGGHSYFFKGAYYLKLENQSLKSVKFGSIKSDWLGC
# Protocol: (§1) The inhibitory activity of the peptides was determined by measuring the MMPs' protease activity towards a FRET substrate. 0.8 nM MMP2 or MMP9 (Sigma-Aldrich), 10 μM substrate (FAM-Lys-Pro-Leu-Gly-Leu-Lys(Dabcyl)-Ala-Arg-NH2, λex 490 nm; λem 520 nm) and various concentrations of the peptides (0.0001 μM-10 μM or 0.001 μM-100 μM) were used. The reactions were performed in 50 mM Tris-HCl buffer (pH 7.5) containing 150 mM NaCl, 10 mM CaCl2, 0.05% Brij35, at 37° C. MMP2 was pre-incubated with the peptide inhibitors for 10 min before adding the substrate. All the numbers were input into GraphPad Prism (GraphPad Software, San Diego) for IC50 calculation.
# [2] = target: T2, MMP9 (Homo sapiens, UniProt P14780); assay: MMPs inhibition assay (FRET substrate), MMP9; format: biochemical
# T2 construct: purchased Sigma-Aldrich
# T2 sequence (P14780 94-707, species assumed): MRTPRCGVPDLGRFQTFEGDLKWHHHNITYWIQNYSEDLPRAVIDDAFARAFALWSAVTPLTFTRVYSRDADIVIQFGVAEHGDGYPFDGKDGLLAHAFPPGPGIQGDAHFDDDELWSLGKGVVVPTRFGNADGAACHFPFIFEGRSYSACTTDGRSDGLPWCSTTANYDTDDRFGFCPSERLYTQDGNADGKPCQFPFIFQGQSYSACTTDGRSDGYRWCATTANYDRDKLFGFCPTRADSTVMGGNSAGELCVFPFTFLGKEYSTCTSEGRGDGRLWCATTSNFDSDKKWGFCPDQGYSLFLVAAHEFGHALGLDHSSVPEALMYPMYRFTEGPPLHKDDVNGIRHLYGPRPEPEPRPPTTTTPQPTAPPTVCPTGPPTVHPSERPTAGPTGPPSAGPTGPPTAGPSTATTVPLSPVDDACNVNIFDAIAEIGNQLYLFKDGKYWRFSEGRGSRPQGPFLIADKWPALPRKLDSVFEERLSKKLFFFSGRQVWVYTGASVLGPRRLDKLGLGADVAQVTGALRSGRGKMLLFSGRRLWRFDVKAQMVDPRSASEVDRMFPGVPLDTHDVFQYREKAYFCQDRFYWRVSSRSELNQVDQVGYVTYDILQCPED
# Protocol: as §1
smiles,measurement,setting,value
"CC[C@H](C)[C@@H]1NC(=O)[C@@H]2CSSC[C@H](NC(=O)[C@H](CCCNC(=N)N)NC(=O)[C@@H]3CSSC[C@H](NC1=O)C(=O)N[C@@H]([C@@H](C)O)C(=O)N[C@@H](CCCNC(=N)N)C(=O)NCC(=O)N[C@@H](Cc1ccccc1)C(=O)N3)C(=O)N[C@@H](CC(C)C)C(=O)N[C@H]1CSSC[C@H](NC(=O)[C@H](C(C)C)NC(=O)CNC(=O)[C@H](CCCNC(=N)N)NC(=O)[C@H](CCCNC(=N)N)NC1=O)C(=O)N[C@@H](CCCNC(=N)N)C(=O)N2 [Peptide 16, reference compound] (cyclo(GFCRCLCRRGVCRCICTR); disulfide 3-16, 5-14, 7-12 (inferred); ring closure inferred)",Ki,[1],60 ± 10.4 nM
same,Ki,[2],> 10000 nM
